Values of other authors as cited in patent US20130195996A1, “METHOD OF PRODUCING PLEURODESIS” (CAREFUSION 2200, INC., priority 2010, published 2013).

Experiments:
rabbits [1] = test system: rabbits
[2] = known methods, high dosages such as 10% concentration (typically 200 mg AgNO3), single dosage
rabbits [3] = conditions: single dosage administration of 0.1% silver nitrate (Marchi et al. 2005)
[4] = 2 mL of 0.25% silver nitrate (Vargas et al. 2001)

O=[N+]([O-])[O-].[Ag+] [silver nitrate]
persistence of pleurodesis result (rabbits [1]; [4]): persists for at least a year
pleurodesis result (rabbits [1]; [4]): relatively superior pleurodesis result
pleurodesis (rabbits [1]; intrapleural injection of 0.5% silver nitrate (Texeira et al. 2003)): significant pleurodesis
sclerosing effects (rabbits [1]; single intrapleural injection of 0.25% silver nitrate (Texeira et al. 2003)): no sclerosing effects
adverse effects associated with injection into the pleural space [2]: severe pain, fever, and relatively large amount of effusion
pleural inflammation (rabbits [3]): relatively intense pleural inflammation
